ChEMBL document CHEMBL1201862, “PubChem BioAssay data set” (2004)
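A five-concentration, 48-hour dose response in 96-well plates underlies each endpoint, interpolated linearly between surrounding concentrations. GI50 = concentration required for 50% inhibition of growth.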 The source made the active and inactive calls. No stated cut-off is given here; in the data, active = GI50 up to about 1.1 µM and inactive = higher.

Legend:
Assay in all cases: growth of human tumour cells (NCI), 48 h
HOP-92 = system: HOP-92
IGROV-1 = system: IGROV-1
NCI-H23 = system: NCI-H23
RXF 393 = system: RXF 393
LXFL 529 = system: LXFL 529
UO-31 = system: UO-31
A498 = system: A498
DMS-114 = system: DMS-114
SF-295 = system: SF-295
NCI-H460 = system: NCI-H460
KM-20L2 = system: KM-20L2
KM12 = system: KM12
M19-MEL = system: M19-MEL
XF498 = system: XF498
Hs-578T = system: Hs-578T
MCF7 = system: MCF7
DU-145 = system: DU-145
PC-3 = system: PC-3
MDA-N = system: MDA-N
MDA-MB-435 = system: MDA-MB-435

SMILES	GI50 (HOP-92)	GI50 (IGROV-1)	GI50 (NCI-H23)	GI50 (RXF 393)	GI50 (LXFL 529)	GI50 (UO-31)	GI50 (A498)	GI50 (DMS-114)	GI50 (SF-295)	GI50 (NCI-H460)	GI50 (KM-20L2)	GI50 (KM12)	GI50 (M19-MEL)	GI50 (XF498)	GI50 (Hs-578T)	GI50 (MCF7)	GI50 (DU-145)	GI50 (PC-3)	GI50 (MDA-N)	GI50 (MDA-MB-435)
Cc1cc(=O)n(-c2c(C)cccc2Cl)c(/C=C(\O)c2ccncc2)n1	62.1 µM (inactive)	> 100 µM (inactive)	> 100 µM (inactive)	> 100 µM (inactive)	> 100 µM (inactive)	35.3 µM (inactive)	> 100 µM (inactive)	> 100 µM (inactive)	> 100 µM (inactive)	> 100 µM (inactive)	> 100 µM (inactive)	48.5 µM (inactive)	–	–	–	–	–	–	–	–
CC1=C(NC(=O)C(=O)NNC(=O)c2ccncc2)C(=O)c2ccccc2C1=O	15.5 µM (inactive)	12.7 µM (inactive)	6.32 µM (inactive)	15.4 µM (inactive)	14.6 µM (inactive)	18 µM (inactive)	23.8 µM (inactive)	4.76 µM (inactive)	10.8 µM (inactive)	4.44 µM (inactive)	23.4 µM (inactive)	15.3 µM (inactive)	1.64 µM (inactive)	–	–	–	–	–	–	–
Oc1cccc(C2SCc3nc4ccccc4n32)c1 (stereo not given)	47.5 µM (inactive)	–	38.8 µM (inactive)	78.7 µM (inactive)	40.6 µM (inactive)	35.6 µM (inactive)	13.2 µM (inactive)	31 µM (inactive)	39.1 µM (inactive)	60.7 µM (inactive)	–	73.3 µM (inactive)	–	–	–	–	–	–	–	–
COc1cc([C@@H]2c3cc4c(cc3[C@@H](NCc3cccc(C#N)c3)C3COC(=O)[C@@H]32)OCO4)cc(OC)c1O (stereo not given in full)	1.32 µM (inactive)	1.03 µM (active)	0.428 µM (active)	2.34 µM (inactive)	5.9 µM (inactive)	2.22 µM (inactive)	1.43 µM (inactive)	1.87 µM (inactive)	0.925 µM (active)	0.0356 µM (active)	1.58 µM (inactive)	1.62 µM (inactive)	5.7 µM (inactive)	–	–	–	–	–	–	–
CC(=O)c1cccc(C)c1C(=O)O	–	> 100 µM (inactive)	> 100 µM (inactive)	> 100 µM (inactive)	> 100 µM (inactive)	> 100 µM (inactive)	> 100 µM (inactive)	> 100 µM (inactive)	> 100 µM (inactive)	> 100 µM (inactive)	> 100 µM (inactive)	> 100 µM (inactive)	> 100 µM (inactive)	–	–	–	–	–	–	–
O=C1/C(=C/c2ccccc2)CN(C(=O)Oc2ccccc2)C/C1=C\c1ccccc1	–	21.6 µM (inactive)	33 µM (inactive)	11.1 µM (inactive)	50.6 µM (inactive)	34.3 µM (inactive)	57.4 µM (inactive)	17.4 µM (inactive)	11.2 µM (inactive)	52.1 µM (inactive)	> 100 µM (inactive)	> 100 µM (inactive)	65.5 µM (inactive)	–	–	–	–	–	–	–
CC1=C2C(=CC(C)(CO)C2O)C(=O)C(C)(O)C12CC2 (stereo not given)	0.00255 µM (active)	0.00721 µM (active)	0.00203 µM (active)	0.00163 µM (active)	0.00393 µM (active)	0.00457 µM (active)	0.00716 µM (active)	0.00205 µM (active)	0.00115 µM (active)	0.000668 µM (active)	0.00216 µM (active)	0.00228 µM (active)	0.00337 µM (active)	–	–	–	–	–	–	–
O=C(CCC(=O)Nc1cccc(Cl)c1)CC(=O)c1ccc(F)cc1	> 100 µM (inactive)	–	> 100 µM (inactive)	–	–	> 100 µM (inactive)	–	–	23.2 µM (inactive)	> 100 µM (inactive)	> 100 µM (inactive)	> 100 µM (inactive)	–	> 100 µM (inactive)	–	–	–	–	–	–
CC(C)c1ccc(Cc2ccc(C(C)C)c(NC(=O)C(=O)Cc3cnc4ccccc4n3)c2C(C)C)c(C(C)C)c1NC(=O)C(=O)Cc1cnc2ccccc2n1	12.4 µM (inactive)	> 100 µM (inactive)	–	–	> 100 µM (inactive)	53 µM (inactive)	> 100 µM (inactive)	> 100 µM (inactive)	> 100 µM (inactive)	> 100 µM (inactive)	> 100 µM (inactive)	> 100 µM (inactive)	> 100 µM (inactive)	–	–	–	–	–	–	–
CCOC(C)OCC#CCCBr (stereo not given)	–	> 100 µM (inactive)	> 100 µM (inactive)	> 100 µM (inactive)	> 100 µM (inactive)	> 100 µM (inactive)	–	79.1 µM (inactive)	> 100 µM (inactive)	> 100 µM (inactive)	> 100 µM (inactive)	> 100 µM (inactive)	> 100 µM (inactive)	–	–	–	–	–	–	–
Cc1ccc(-c2cs/c(=N\c3ccccc3)n2NC(=O)c2ccncc2)cc1	88.5 µM (inactive)	40.3 µM (inactive)	31.3 µM (inactive)	35.2 µM (inactive)	–	30.6 µM (inactive)	> 75.2 µM (inactive)	–	27.6 µM (inactive)	36.3 µM (inactive)	–	31.4 µM (inactive)	–	–	57.5 µM (inactive)	33.3 µM (inactive)	56.2 µM (inactive)	27.4 µM (inactive)	25.4 µM (inactive)	29.4 µM (inactive)
O=C(O)c1ccc(Nc2nc3nn(Cc4ccccc4)cc3c(=O)s2)cc1	> 100 µM (inactive)	> 100 µM (inactive)	> 100 µM (inactive)	> 100 µM (inactive)	> 100 µM (inactive)	> 100 µM (inactive)	–	> 100 µM (inactive)	> 100 µM (inactive)	> 100 µM (inactive)	> 100 µM (inactive)	> 100 µM (inactive)	> 100 µM (inactive)	–	–	–	–	–	–	–
CC(C)c1cccc(C(C)C)c1NC(=O)CCC(=O)NN	> 100 µM (inactive)	> 100 µM (inactive)	> 100 µM (inactive)	–	> 100 µM (inactive)	> 100 µM (inactive)	> 100 µM (inactive)	> 100 µM (inactive)	> 100 µM (inactive)	84.9 µM (inactive)	> 100 µM (inactive)	> 100 µM (inactive)	> 100 µM (inactive)	–	–	–	–	–	–	–
CC(=O)OC12CC[N+]3(C)CCCCC3C1=Nc1ccccc12 (stereo not given)	> 100 µM (inactive)	> 100 µM (inactive)	> 100 µM (inactive)	> 100 µM (inactive)	–	> 100 µM (inactive)	80.2 µM (inactive)	–	> 100 µM (inactive)	> 100 µM (inactive)	–	82.8 µM (inactive)	–	–	> 100 µM (inactive)	> 100 µM (inactive)	> 100 µM (inactive)	> 100 µM (inactive)	> 100 µM (inactive)	> 100 µM (inactive)
COc1cccc2c1-c1c(OC)cccc1SS2	19.9 µM (inactive)	17.4 µM (inactive)	18.6 µM (inactive)	17.5 µM (inactive)	–	22.8 µM (inactive)	8.75 µM (inactive)	–	19.9 µM (inactive)	18.2 µM (inactive)	–	34 µM (inactive)	–	–	26.1 µM (inactive)	20.3 µM (inactive)	28.9 µM (inactive)	32.5 µM (inactive)	2.67 µM (inactive)	3.73 µM (inactive)
Oc1nnc2c(-c3ccccc3)n[nH]c2n1	–	94.4 µM (inactive)	> 100 µM (inactive)	> 100 µM (inactive)	> 100 µM (inactive)	> 100 µM (inactive)	> 100 µM (inactive)	> 100 µM (inactive)	> 100 µM (inactive)	> 100 µM (inactive)	> 100 µM (inactive)	> 100 µM (inactive)	–	–	–	–	–	–	–	–
Cc1cc(C)c(O)c(Cc2cccc(Cc3cc(C)cc(C)c3O)c2O)c1	> 100 µM (inactive)	> 100 µM (inactive)	> 100 µM (inactive)	> 100 µM (inactive)	–	> 100 µM (inactive)	> 100 µM (inactive)	–	> 100 µM (inactive)	> 100 µM (inactive)	–	> 100 µM (inactive)	–	–	> 100 µM (inactive)	> 100 µM (inactive)	> 100 µM (inactive)	> 100 µM (inactive)	> 100 µM (inactive)	> 100 µM (inactive)
O=[N+]([O-])C(=C(NCc1ccccc1)NCc1ccccc1)C(Cl)=C(Cl)Cl	37.3 µM (inactive)	34 µM (inactive)	38.4 µM (inactive)	28 µM (inactive)	–	25.3 µM (inactive)	61.7 µM (inactive)	–	24.5 µM (inactive)	37.5 µM (inactive)	–	20.3 µM (inactive)	–	–	49.2 µM (inactive)	41.1 µM (inactive)	69.3 µM (inactive)	32.1 µM (inactive)	25.2 µM (inactive)	22.9 µM (inactive)
Cn1c(=S)c2nc(SCCCc3ccccc3)[nH]c2n(C)c1=O	78.3 µM (inactive)	35.6 µM (inactive)	16.7 µM (inactive)	56.5 µM (inactive)	–	14.4 µM (inactive)	18.4 µM (inactive)	–	11.4 µM (inactive)	7.14 µM (inactive)	–	19.5 µM (inactive)	–	–	> 100 µM (inactive)	22.1 µM (inactive)	36.1 µM (inactive)	36.8 µM (inactive)	21.8 µM (inactive)	23.2 µM (inactive)
COc1ccc(/C=N/N=C(\N)NO)c(OC)c1OC	11.1 µM (inactive)	36.6 µM (inactive)	31.3 µM (inactive)	30.1 µM (inactive)	–	20.8 µM (inactive)	26.7 µM (inactive)	–	31.6 µM (inactive)	33 µM (inactive)	–	4.69 µM (inactive)	–	–	> 100 µM (inactive)	11.5 µM (inactive)	12.8 µM (inactive)	36.3 µM (inactive)	66.5 µM (inactive)	57.7 µM (inactive)
CN(C)Cc1cc(C(=O)/C=C/c2ccc(Cl)cc2Cl)cc(CN(C)C)c1O	3.94 µM (inactive)	2.72 µM (inactive)	6.9 µM (inactive)	2.51 µM (inactive)	–	2.07 µM (inactive)	2.4 µM (inactive)	–	3.34 µM (inactive)	1.46 µM (inactive)	–	1.47 µM (inactive)	–	–	3.82 µM (inactive)	2.33 µM (inactive)	4.73 µM (inactive)	1.65 µM (inactive)	1.88 µM (inactive)	4.06 µM (inactive)
